According to ChEMBL document CHEMBL1137662, “Effect of oral treatment with hexadecyloxypropyl-[(S)-9-(3-hydroxy-2- phosphonylmethoxypropyl)adenine] [(S)-HPMPA] or octadecyloxyethyl-(S)-HPMPA on cowpox or vaccinia virus infections in mice” (Antimicrob Agents Chemother, 2007):

Legend:
Cowpox virus [1] = experiment: Antiviral activity against Cowpox virus Brighton infected BALB/c mouse assessed as mean death day at 3 mg/kg, po treated for 5 days after 72 hrs of viral inoculation; type: functional, Cowpox virus (Brighton Red)
Vaccinia virus [2] = experiment: Antiviral activity against Vaccinia virus WR infected BALB/c mouse assessed as mean death day at 30 mg/kg, po treated for 5 days after 24 hrs of viral inoculation; type: functional, Orthopoxvirus vaccinia
[3] = Cmax in Swiss Webster mouse at 10 mg/kg, po; type: ADME, organism-based; parameters: dose 10 mg/kg, route oral; settings: in vivo
[4] = Half life in Swiss Webster mouse at 10 mg/kg, ip; type: ADME, organism-based; parameters: dose 10 mg/kg, route intraperitoneal; settings: in vivo
Liver [5] = experiment: Drug level in Swiss Webster mouse liver at 10 mg/kg, ip after 1 hr; type: ADME, organism-based; parameters: dose 10 mg/kg, route intraperitoneal; settings: in vivo
Cowpox virus [6] = experiment: Antiviral activity against Cowpox virus Brighton infected BALB/c mouse assessed as mortality at 10 mg/kg, po treated for 5 days after 24 hrs of viral inoculation; type: functional, Cowpox virus (Brighton Red)
[7] = Oral bioavailability in Swiss Webster mouse at 10 mg/kg; type: ADME, organism-based; settings: in vivo
[8] = Cmax in Swiss Webster mouse at 10 mg/kg, ip; type: ADME, organism-based; parameters: dose 10 mg/kg, route intraperitoneal; settings: in vivo
Cowpox virus [9] = experiment: Antiviral activity against Cowpox virus Brighton infected BALB/c mouse assessed as mortality at 10 mg/kg, po treated for 5 days after 48 hrs of viral inoculation; type: functional, Cowpox virus (Brighton Red)
Liver [10] = experiment: Drug level in Swiss Webster mouse liver at 10 mg/kg, po after 3 hrs; type: ADME, organism-based; parameters: dose 10 mg/kg, route oral; settings: in vivo
[11] = Selectivity index, ratio of CC50 for HFF cells to EC50 for Cowpox virus Brighton; type: toxicity, cell-based; settings: human, read-out: Ratio CC50/EC50
Cowpox virus [12] = experiment: Antiviral activity against Cowpox virus Brighton infected BALB/c mouse assessed as mean death day at 30 mg/kg, po treated for 5 days after 72 hrs of viral inoculation; type: functional, Cowpox virus (Brighton Red)
Mus musculus [13] = experiment: AUC (0 to 24hrs) in Swiss Webster mouse plasma at 10 mg/kg, ip; type: ADME, organism-based; parameters: time < 24 hr, dose 10 mg/kg, route intraperitoneal; settings: in vivo
Cowpox virus [14] = experiment: Antiviral activity against Cowpox virus Brighton infected BALB/c mouse assessed as mean death day at 30 mg/kg, po treated for 5 days after 24 hrs of viral inoculation; type: functional, Cowpox virus (Brighton Red)
Mus musculus [15] = experiment: AUC (0 to 24hrs) in Swiss Webster mouse plasma at 10 mg/kg, po; type: ADME, organism-based; parameters: time < 24 hr, dose 10 mg/kg, route oral; settings: in vivo
Vaccinia virus [16] = experiment: Antiviral activity against Vaccinia virus WR infected BALB/c mouse assessed as mean death day at 3 mg/kg, po treated for 5 days after 24 hrs of viral inoculation; type: functional, Orthopoxvirus vaccinia
[17] = Tmax in Swiss Webster mouse at 10 mg/kg, ip; type: ADME, organism-based; parameters: dose 10 mg/kg, route intraperitoneal; settings: in vivo
Cowpox virus [18] = experiment: Antiviral activity against Cowpox virus Brighton infected BALB/c mouse assessed as mortality at 30 mg/kg, po treated for 5 days after 72 hrs of viral inoculation; type: functional, Cowpox virus (Brighton Red)
Mus musculus [19] = experiment: Plasma concentration in Swiss Webster mouse at 10 mg/kg, ip after 24 hrs by liquid scintillation counting; type: ADME, organism-based; parameters: dose 10 mg/kg, route intraperitoneal; settings: in vivo
[20] = Half life in Swiss Webster mouse at 10 mg/kg, po; type: ADME, organism-based; parameters: dose 10 mg/kg, route oral; settings: in vivo
Kidney [21] = experiment: Drug level in Swiss Webster mouse kidney at 10 mg/kg, ip after 1 hr; type: ADME, organism-based; parameters: dose 10 mg/kg, route intraperitoneal; settings: in vivo
Kidney [22] = experiment: Drug level in Swiss Webster mouse kidney at 10 mg/kg, po after 3 hrs; type: ADME, organism-based; parameters: dose 10 mg/kg, route oral; settings: in vivo
Vaccinia virus [23] = experiment: Antiviral activity against Vaccinia virus WR infected BALB/c mouse assessed as mean death day at 10 mg/kg, po treated for 5 days after 48 hrs of viral inoculation; type: functional, Orthopoxvirus vaccinia
[24] = Tmax in Swiss Webster mouse at 10 mg/kg, po; type: ADME, organism-based; parameters: dose 10 mg/kg, route oral; settings: in vivo
Lung [25] = experiment: Drug level in Swiss Webster mouse lung at 10 mg/kg, ip after 1 hr; type: ADME, organism-based; parameters: dose 10 mg/kg, route intraperitoneal; settings: in vivo
Cowpox virus [26] = experiment: Antiviral activity against Cowpox virus Brighton infected BALB/c mouse assessed as log reduction of viral titer per gram of spleen at 30 mg/kg, po treated for 5 days after 24 hrs of viral inoculation; type: functional, Cowpox virus (Brighton Red)
Cowpox virus [27] = experiment: Antiviral activity against Cowpox virus Brighton infected BALB/c mouse assessed as mortality at 30 mg/kg, po treated for 5 days after 24 hrs of viral inoculation; type: functional, Cowpox virus (Brighton Red)
Lung [28] = experiment: Drug level in Swiss Webster mouse lung at 10 mg/kg, po after 3 hrs; type: ADME, organism-based; parameters: dose 10 mg/kg, route oral; settings: in vivo
Mus musculus [29] = experiment: Plasma concentration in Swiss Webster mouse at 10 mg/kg, po after 24 hrs by liquid scintillation counting; type: ADME, organism-based; parameters: dose 10 mg/kg, route oral; settings: in vivo

Compound	Activity (Cowpox virus [1]) [days]	Activity (Vaccinia virus [2]) [days]	Activity (Cowpox virus [6]) [%]	Activity (Cowpox virus [9]) [%]	selectivity ratio [11]	Activity (Cowpox virus [12]) [days]	Activity (Cowpox virus [14]) [days]	Activity (Vaccinia virus [16]) [days]	Activity (Cowpox virus [18]) [%]	Activity (Vaccinia virus [23]) [days]	log10PFU (Cowpox virus [26]) [g]	Activity (Cowpox virus [27]) [%]	also measured
CCCCCCCCCCCCCCCCOCCCOP(=O)(O)CO[C@H](CO)Cn1cnc2c(N)ncnc21	10.1	7	67	27	485	6.5	15	7	13	8	2.5	13	Cmax [3]: 1100 nM; half-life [4]: 2.5 h; Drug uptake (Liver [5]): 130 nmol/g; bioavailability [7]: 74%; Cmax [8]: 2200 nM; Drug uptake (Liver [10]): 21 nmol/g; AUC (Mus musculus [13]): 16.4 nmol·h/g; AUC (Mus musculus [15]): 12.1 nmol·h/g; Tmax [17]: 3 h; concentration (Mus musculus [19]): 80 nM; half-life [20]: 11.5 h; Drug uptake (Kidney [21]): 23 nmol/g; Drug uptake (Kidney [22]): 5.1 nmol/g; Tmax [24]: 1 h; Drug uptake (Lung [25]): 2.8 nmol/g; Drug uptake (Lung [28]): 1.9 nmol/g; concentration (Mus musculus [29]): 30 nM
CCCCCCCCCCCCCCCCCCOCCOP(=O)(O)CO[C@H](CO)Cn1cnc2c(N)ncnc21	11.1	8.3	7	20	75	10.6	13	8.8	33	10.3	2.5	7	
